# Tests used:
# Test in all cases: MIC microbroth dilution
# Format in all cases: cell-based
# [1] = test system: K. pn GC 3104 (MIR-1 + TEM-1); conditions: Klebsiella pneumoniae, β-lactamase class A, C, MHBII, 35° C. 18 hr, read-out: Minimal Inhibitory Concentration
# Method: (§1) The in vitro activities of the antibiotics were determined by the microbroth dilution method as recommended by the National Committee for Clinical Laboratory Standards (NCCLS). (NCCLS. 2000. Methods for Dilution Antimicrobial Susceptibility Tests for Bacteria That Grow Aerobically; Approved Standards: M7-A5, vol. 19. National Committee for Clinical Laboratory Standards, Villanova, Pa.). Mueller-Hinton II broth (MHBII) (BBL Cockeysville, Md.), was used for the testing procedure. […]. The plates were incubated for 18-22 hours at 35 C. in ambient air.
# [2] = test system: E. coli GC 6197 (TEM-1 + SHV-7 + CMY-2); conditions: Escherichia coli, β-lactamase class A, A (ESBL), C, MHBII, 35° C. 18 hr, read-out: Minimal Inhibitory Concentration
# Method: as §1
# [3] = test system: P. aeruginosa GC 3153 Inducible AmpC; conditions: Pseudomonas aeruginosa, β-lactamase class C, MHBII, 35° C. 18 hr, read-out: Minimal Inhibitory Concentration
# Method: as §1
# [4] = test system: K. pn GC 6657 (TEM-1 + SHV-27); conditions: Klebsiella pneumoniae, β-lactamase class A, A (ESBL), MHBII, 35° C. 18 hr, read-out: Minimal Inhibitory Concentration
# Method: as §1
# [5] = test system: E. coli GC 2300 (TEM-28); conditions: Escherichia coli, β-lactamase class A (ESBL), MHBII, 35° C. 18 hr, read-out: Minimal Inhibitory Concentration
# Method: as §1
# [6] = test system: E. coli ATCC 35218 TEM-1; conditions: Escherichia coli, ATCC35218, 18 h, read-out: Minimal Inhibitory Concentration
# Method: as §1
# [7] = test system: K. pn GC 1554 (TEM-1 + TEM-26 + SHV-1); conditions: Klebsiella pneumoniae, β-lactamase class A, A (ESBL), MHBII, 35° C. 18 hr, read-out: Minimal Inhibitory Concentration
# Method: as §1
# [8] = test system: K. pn GC 2391 (pl 5.4; 5.6; 7.6; 8.7 B-lactamases); conditions: Klebsiella pneumoniae, β-lactamase class A, A (ESBL), C (presumed), MHBII, 35° C. 18 hr, read-out: Minimal Inhibitory Concentration
# Method: as §1
# [9] = test system: E. coli GC 6368 (SHV-7); conditions: Escherichia coli, β-lactamase class A (ESBL), MHBII, 35° C. 18 hr, read-out: Minimal Inhibitory Concentration
# Method: as §1
# [10] = test system: E. coli ATCC 25922 (none); conditions: Escherichia coli, ATCC25922, β-lactamase class none, MHBII, 35° C. 18 hr, read-out: Minimal Inhibitory Concentration
# Method: as §1
# [11] = test system: K. pn GC 6639 (SHV-13); conditions: Klebsiella pneumoniae, β-lactamase class A (ESBL), MHBII, 35° C. 18 hr, read-out: Minimal Inhibitory Concentration
# Method: as §1
# [12] = test system: E. coli GAR 6649 TEM, OXA, CTX (By PCR only); conditions: Escherichia coli, β-lactamase class A, A (ESBL), D, MHBII, 35° C. 18 hr, read-out: Minimal Inhibitory Concentration
# Method: as §1
# [13] = test system: E. coli GC 2146 (TEM-1; SHV-7); conditions: Escherichia coli, β-lactamase class A, A (ESBL), MHBII, 35° C. 18 hr, read-out: Minimal Inhibitory Concentration
# Method: as §1
# [14] = test system: E. coli GC 2295 TEM-1 + AmpC; conditions: Escherichia coli, β-lactamase class A, C, MHBII, 35° C. 18 hr, read-out: Minimal Inhibitory Concentration
# Method: as §1
# [15] = test system: S. typhimurium GC 4197 CTX-M-5; conditions: Salmonella enterica, β-lactamase class A (ESBL), MHBII, 35° C. 18 hr, read-out: Minimal Inhibitory Concentration
# Method: as §1
# [16] = test system: S. typhimurium GC 4198 SHV-1 CTX-M-5; conditions: Salmonella enterica, 18 h, read-out: Minimal Inhibitory Concentration
# Method: as §1
# [17] = test system: A. baumannii GC 7685 TEM-1; conditions: Acinetobacter baumannii, GC7685TEM1, 18 h, read-out: Minimal Inhibitory Concentration
# Method: as §1
# [18] = test system: S. marcescens GC 1781 (Sme-1 + AmpC); conditions: Serratia marcescens, β-lactamase class A (Cb'ase), C, MHBII, 35° C. 18 hr, read-out: Minimal Inhibitory Concentration
# Method: as §1
# [19] = test system: E. aerogenes 1697-MP GC 7845 AmpC; conditions: Klebsiella aerogenes; E. aerogenes GC 7845; β-lactamase class C; MHBII, 35° C. 18 hr; read-out: Minimal Inhibitory Concentration
# Method: as §1
# [20] = test system: E. coli GC 2844 (none); conditions: Escherichia coli, β-lactamase class none, MHBII, 35° C. 18 hr, read-out: Minimal Inhibitory Concentration
# Method: as §1
# [21] = test system: K. pn GC 1516 (TEM-26); conditions: Klebsiella pneumoniae, β-lactamase class A (ESBL), MHBII, 35° C. 18 hr, read-out: Minimal Inhibitory Concentration
# Method: as §1
# [22] = test system: E. cloacae PT 967 Inducible AmpC; conditions: Enterobacter cloacae, β-lactamase class C, MHBII, 35° C. 18 hr, read-out: Minimal Inhibitory Concentration
# Method: as §1
# [23] = test system: K. pn GC 3057 (CAZ-R; P/T-R); conditions: Klebsiella pneumoniae, β-lactamase class A, A (ESBL), MHBII, 35° C. 18 hr, read-out: Minimal Inhibitory Concentration
# Method: as §1
# [24] = test system: P. aeruginosa GC 1764 (AmpC); conditions: Pseudomonas aeruginosa, β-lactamase class C, MHBII, 35° C. 18 hr, read-out: Minimal Inhibitory Concentration
# Method: as §1
compound,measurement,setting,value
CO/N=C(\C(=O)N[C@@H]1C(=O)N2C(C(=O)[O-])=C(C[N+]3(C)CCCC3)CS[C@H]12)c1csc(N)n1 [Cefepime],MIC,[1],1 µg/mL
same,MIC,[2],> 16 µg/mL
same,MIC,[3],16 µg/mL
same,MIC,[4],0.12 µg/mL
same,MIC,[5],> 16 µg/mL
same,MIC,[6],0.03 µg/mL
same,MIC,[7],8 µg/mL
same,MIC,[8],8 µg/mL
same,MIC,[9],2 µg/mL
same,MIC,[10],0.03 µg/mL
same,MIC,[11],8 µg/mL
same,MIC,[12],> 16 µg/mL
same,MIC,[13],> 16 µg/mL
same,MIC,[14],0.5 µg/mL
same,MIC,[15],> 16 µg/mL
same,MIC,[16],> 16 µg/mL
same,MIC,[17],> 16 µg/mL
same,MIC,[18],0.06 µg/mL
same,MIC,[19],0.5 µg/mL
same,MIC,[20],0.06 µg/mL
same,MIC,[21],> 16 µg/mL
same,MIC,[22],0.12 µg/mL
same,MIC,[23],16 µg/mL
same,MIC,[24],8 µg/mL
